Like-named read-outs stand apart in the source and are kept apart here.
Legend:
SARS-CoV-2 nsp3-mac1 [1] = biological target: T1, SARS-CoV-2 nsp3-mac1 (Severe acute respiratory syndrome coronavirus 2, UniProt P0DTD1); experiment: biochemical; type: biochemical; settings: SARS-CoV-2 nsp3 macrodomain TR-FRET single point
SARS-CoV-2 nsp3-mac1 [2] = biological target: T1, SARS-CoV-2 nsp3-mac1; experiment: biochemical; parameters: SARS-CoV-2 nsp3 macrodomain TR-FRET single point, per cent inhibition, n=2
[3] = read-out: perc_inhibition_mean, batch_name=ASAP-0000295-001
[4] = read-out: perc_inhibition_mean, batch_name=ASAP-0000480-001
[5] = read-out: perc_inhibition_mean, batch_name=ASAP-0000262-001
[6] = read-out: perc_inhibition_mean, batch_name=ASAP-0000288-001
[7] = read-out: perc_inhibition_mean, batch_name=ASAP-0000412-001
[8] = read-out: perc_inhibition_mean, batch_name=ASAP-0000324-001
[9] = read-out: perc_inhibition_mean, batch_name=ASAP-0000482-001
[10] = read-out: perc_inhibition_mean, batch_name=ASAP-0000402-001
[11] = read-out: perc_inhibition_mean, batch_name=ASAP-0000352-001

Question: With `CC(C)n1ncnc1CNc1cc2c(=O)nc[nH]c2cn1` [ASAP-0000121] as the molecule, how does the perc_inhibition_mean (SARS-CoV-2 nsp3-mac1 [1]; concentration 50.0 uM) read?
Answer: -1.486%

Question: What about the inhibition at 50 µM (SARS-CoV-2 nsp3-mac1 [2]; read-out: perc_inhibition_mean, batch_name=ASAP-0000121-001) of the same molecule?
Answer: -1.49%

Question: Which results are given for `O=C(O)[C@H]1CCCCCN1C(=O)c1ncnc2[nH]ccc12` [ASAP-0000072]?
Answer: perc_inhibition_mean (SARS-CoV-2 nsp3-mac1 [1]; concentration 50.0 uM): 11.75%; inhibition at 50 µM (SARS-CoV-2 nsp3-mac1 [2]; read-out: perc_inhibition_mean, batch_name=ASAP-0000072-001): 11.8%

Question: Which results are given for `c1ccc2sc([C@@H]3CCCN(c4ncnc5[nH]ccc45)C3)nc2c1` [ASAP-0000085]?
Answer: perc_inhibition_mean (SARS-CoV-2 nsp3-mac1 [1]; concentration 50.0 uM): -0.779%; inhibition at 50 µM (SARS-CoV-2 nsp3-mac1 [2]; read-out: perc_inhibition_mean, batch_name=ASAP-0000085-001): -0.779%

Question: Which perc_inhibition_mean (SARS-CoV-2 nsp3-mac1 [1]; concentration 50.0 uM) does the source give for `C=CCn1c(Sc2ncnc3[nH]ccc23)nc2sccc2c1=O` [ASAP-0000005] here?
Answer: 6.305%

Question: And the inhibition at 50 µM (SARS-CoV-2 nsp3-mac1 [2]; read-out: perc_inhibition_mean, batch_name=ASAP-0000005-001)?
Answer: 6.3%

Question: `Cc1nn(Cc2ccccc2)c(C)c1CNc1ncnc2[nH]ncc12` [ASAP-0000084] was tested. Which perc_inhibition_mean (SARS-CoV-2 nsp3-mac1 [1]; concentration 50.0 uM) did it give?
Answer: -1.755%

Question: And the inhibition at 50 µM (SARS-CoV-2 nsp3-mac1 [2]; read-out: perc_inhibition_mean, batch_name=ASAP-0000084-001)?
Answer: -1.75%

Question: How did the perc_inhibition_mean (SARS-CoV-2 nsp3-mac1 [1]; concentration 49.75 uM, n=2) turn out when `O=C(Nc1ccccc1)Nc1ccc(C(=O)N2CCc3nc[nH]c3C2)cc1` [ASAP-0000295] was run?
Answer: -3.024%

Question: What about the perc_inhibition_mean (SARS-CoV-2 nsp3-mac1 [1]; concentration 99.5 uM, n=2) of the same molecule?
Answer: -2.379%

Question: What about the inhibition at 49.75 µM (SARS-CoV-2 nsp3-mac1 [2]; [3]) of the same molecule?
Answer: -3.02%

Question: What about the inhibition at 99.5 µM (SARS-CoV-2 nsp3-mac1 [2]; [3]) of the same molecule?
Answer: -2.38%

Question: Which results are given for `CC(C)[C@@H](CO)[C@@H](Nc1ncnc2[nH]ccc12)C(C)C` [ASAP-0000480]?
Answer: perc_inhibition_mean (SARS-CoV-2 nsp3-mac1 [1]; concentration 49.75 uM): 6.651%; perc_inhibition_mean (SARS-CoV-2 nsp3-mac1 [1]; concentration 99.5 uM): 13.057%; inhibition at 49.75 µM (SARS-CoV-2 nsp3-mac1 [2]; [4]): 6.65%; inhibition at 99.5 µM (SARS-CoV-2 nsp3-mac1 [2]; [4]): 13.1%

Question: Which results are given for `c1cc(CNc2ncnc3nc[nH]c23)n2ncnc2c1` [ASAP-0000262]?
Answer: perc_inhibition_mean (SARS-CoV-2 nsp3-mac1 [1]; concentration 50.0 uM, n=2): 1.353%; perc_inhibition_mean (SARS-CoV-2 nsp3-mac1 [1]; concentration 100.0 uM, n=2): 10.036%; inhibition at 50 µM (SARS-CoV-2 nsp3-mac1 [2]; [5]): 1.35%; inhibition at 100 µM (SARS-CoV-2 nsp3-mac1 [2]; [5]): 10%

Question: Which perc_inhibition_mean (SARS-CoV-2 nsp3-mac1 [1]; concentration 49.75 uM, n=2) does the source give for `O=C(Nc1ccccc1)Nc1ccc(C(=O)N2CCOCC23CCC3)cc1` [ASAP-0000288] here?
Answer: -5.176%

Question: And the perc_inhibition_mean (SARS-CoV-2 nsp3-mac1 [1]; concentration 99.5 uM, n=2)?
Answer: -3.184%

Question: And the inhibition at 49.75 µM (SARS-CoV-2 nsp3-mac1 [2]; [6])?
Answer: -5.18%

Question: And the inhibition at 99.5 µM (SARS-CoV-2 nsp3-mac1 [2]; [6])?
Answer: -3.18%

Question: For `CC1OCCC1(O)CNC(=O)c1ncnc2[nH]ccc12` (centres unmarked) [ASAP-0000065], which perc_inhibition_mean (SARS-CoV-2 nsp3-mac1 [1]; concentration 50.0 uM) is on record?
Answer: 1.864%

Question: And the inhibition at 50 µM (SARS-CoV-2 nsp3-mac1 [2]; read-out: perc_inhibition_mean, batch_name=ASAP-0000065-001)?
Answer: 1.86%

Question: For `c1cc(CNc2cnc3[nH]ncc3c2)cc(-c2ccncc2)c1` [ASAP-0000022], which perc_inhibition_mean (SARS-CoV-2 nsp3-mac1 [1]; concentration 50.0 uM) is on record?
Answer: -17.179%

Question: What about the inhibition at 50 µM (SARS-CoV-2 nsp3-mac1 [2]; read-out: perc_inhibition_mean, batch_name=ASAP-0000022-001) of the same molecule?
Answer: -17.2%

Question: Which results are given for `CN(C[C@H]1CCCN1)C(=O)c1cnn2ccc(C3CCN(C(=O)c4ccccc4)CC3)cc12` [ASAP-0000412]?
Answer: perc_inhibition_mean (SARS-CoV-2 nsp3-mac1 [1]; concentration 49.75 uM): -7.471%; perc_inhibition_mean (SARS-CoV-2 nsp3-mac1 [1]; concentration 99.5 uM): -6.586%; inhibition at 49.75 µM (SARS-CoV-2 nsp3-mac1 [2]; [7]): -7.47%; inhibition at 99.5 µM (SARS-CoV-2 nsp3-mac1 [2]; [7]): -6.59%

Question: How did the perc_inhibition_mean (SARS-CoV-2 nsp3-mac1 [1]; concentration 50.0 uM) turn out when `O=C(Cc1ccon1)Nc1ncnc2[nH]cnc12` [ASAP-0000102] was run?
Answer: -1.615%

Question: What about the inhibition at 50 µM (SARS-CoV-2 nsp3-mac1 [2]; read-out: perc_inhibition_mean, batch_name=ASAP-0000102-001) of the same molecule?
Answer: -1.61%

Question: Which perc_inhibition_mean (SARS-CoV-2 nsp3-mac1 [1]; concentration 49.75 uM, n=2) does the source give for `CO[C@@H]1CCCN(C(=O)c2cnn3ccc(C4CCN(C(=O)c5ccccc5)CC4)cc23)C1` [ASAP-0000324] here?
Answer: 22.606%

Question: And the perc_inhibition_mean (SARS-CoV-2 nsp3-mac1 [1]; concentration 99.5 uM, n=2)?
Answer: 39.842%

Question: What about the inhibition at 49.75 µM (SARS-CoV-2 nsp3-mac1 [2]; [8]) of the same molecule?
Answer: 22.6%

Question: What about the inhibition at 99.5 µM (SARS-CoV-2 nsp3-mac1 [2]; [8]) of the same molecule?
Answer: 39.8%

Question: With `CC(C)[C@@H](Nc1ncnc2[nH]ccc12)C(=O)N(C)Cc1nnc2n1CCC2` [ASAP-0000482] as the molecule, how does the perc_inhibition_mean (SARS-CoV-2 nsp3-mac1 [1]; concentration 49.75 uM) read?
Answer: -8.89%

Question: And the perc_inhibition_mean (SARS-CoV-2 nsp3-mac1 [1]; concentration 99.5 uM)?
Answer: -6.138%

Question: What about the inhibition at 49.75 µM (SARS-CoV-2 nsp3-mac1 [2]; [9]) of the same molecule?
Answer: -8.89%

Question: What about the inhibition at 99.5 µM (SARS-CoV-2 nsp3-mac1 [2]; [9]) of the same molecule?
Answer: -6.14%

Question: Which perc_inhibition_mean (SARS-CoV-2 nsp3-mac1 [1]; concentration 49.75 uM) does the source give for `O=C(c1ccnc(S)c1)N1CCC(c2ccn3ncc(C(=O)N4CCCCC4)c3c2)CC1` [ASAP-0000402] here?
Answer: 20.252%

Question: And the perc_inhibition_mean (SARS-CoV-2 nsp3-mac1 [1]; concentration 99.5 uM)?
Answer: 35.496%

Question: What about the inhibition at 49.75 µM (SARS-CoV-2 nsp3-mac1 [2]; [10]) of the same molecule?
Answer: 20.3%

Question: And the inhibition at 99.5 µM (SARS-CoV-2 nsp3-mac1 [2]; [10])?
Answer: 35.5%

Question: With `Brc1ccc(-n2nnnc2Sc2ncnc3[nH]ccc23)cc1` [ASAP-0000063] as the molecule, how does the perc_inhibition_mean (SARS-CoV-2 nsp3-mac1 [1]; concentration 50.0 uM) read?
Answer: 12.69%

Question: And the inhibition at 50 µM (SARS-CoV-2 nsp3-mac1 [2]; read-out: perc_inhibition_mean, batch_name=ASAP-0000063-001)?
Answer: 12.7%

Question: With `Cn1ncc2c(NCc3ncccc3O)ncnc21` [ASAP-0000096] as the molecule, how does the perc_inhibition_mean (SARS-CoV-2 nsp3-mac1 [1]; concentration 50.0 uM) read?
Answer: 3.893%

Question: And the inhibition at 50 µM (SARS-CoV-2 nsp3-mac1 [2]; read-out: perc_inhibition_mean, batch_name=ASAP-0000096-001)?
Answer: 3.89%

Question: How did the perc_inhibition_mean (SARS-CoV-2 nsp3-mac1 [1]; concentration 49.75 uM) turn out when `O=C(NCCn1cncn1)c1cnn2ccc(C3CCN(C(=O)c4ccccc4)CC3)cc12` [ASAP-0000352] was run?
Answer: -3.7%

Question: And the perc_inhibition_mean (SARS-CoV-2 nsp3-mac1 [1]; concentration 99.5 uM, n=2)?
Answer: -2.566%

Question: And the inhibition at 49.75 µM (SARS-CoV-2 nsp3-mac1 [2]; [11])?
Answer: -3.7%

Question: And the inhibition at 99.5 µM (SARS-CoV-2 nsp3-mac1 [2]; [11])?
Answer: -2.57%
